Assay [1] concerns the target T1, TLR8 (Homo sapiens, UniProt Q9NR97).
T1 sequence (Q9NR97 27-1041): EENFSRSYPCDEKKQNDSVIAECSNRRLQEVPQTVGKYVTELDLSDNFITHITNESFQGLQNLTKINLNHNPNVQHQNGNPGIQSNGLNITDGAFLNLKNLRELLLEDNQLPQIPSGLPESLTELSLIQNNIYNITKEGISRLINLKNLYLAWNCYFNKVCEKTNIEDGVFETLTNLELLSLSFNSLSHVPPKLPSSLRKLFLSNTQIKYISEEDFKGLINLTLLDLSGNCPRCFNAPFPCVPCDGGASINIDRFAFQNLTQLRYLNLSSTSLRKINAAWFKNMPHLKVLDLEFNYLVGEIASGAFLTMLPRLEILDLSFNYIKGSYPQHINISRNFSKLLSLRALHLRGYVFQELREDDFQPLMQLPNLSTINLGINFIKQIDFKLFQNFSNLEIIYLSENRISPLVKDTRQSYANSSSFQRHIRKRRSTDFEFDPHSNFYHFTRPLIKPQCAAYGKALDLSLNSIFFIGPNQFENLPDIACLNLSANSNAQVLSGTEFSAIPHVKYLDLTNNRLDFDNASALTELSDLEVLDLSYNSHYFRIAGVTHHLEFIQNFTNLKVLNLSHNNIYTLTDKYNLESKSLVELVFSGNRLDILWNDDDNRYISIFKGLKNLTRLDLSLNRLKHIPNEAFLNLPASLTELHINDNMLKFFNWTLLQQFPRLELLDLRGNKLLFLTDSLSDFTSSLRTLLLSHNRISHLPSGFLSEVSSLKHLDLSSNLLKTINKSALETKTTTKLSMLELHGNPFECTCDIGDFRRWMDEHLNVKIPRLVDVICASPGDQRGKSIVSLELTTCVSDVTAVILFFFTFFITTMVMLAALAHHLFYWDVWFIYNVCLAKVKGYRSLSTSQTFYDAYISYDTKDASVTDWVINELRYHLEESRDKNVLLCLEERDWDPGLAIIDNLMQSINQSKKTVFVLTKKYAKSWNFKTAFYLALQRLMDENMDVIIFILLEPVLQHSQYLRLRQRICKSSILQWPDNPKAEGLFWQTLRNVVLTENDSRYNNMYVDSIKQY
Put plainly: PBMC assay for TLR8 (TNFα in supernatants by ELISA). In kind it is cell-based. Further details: Peripheral blood mononuclear cells (PBMCs) from human blood were isolated; endogenous in cells; host or cells: human PBMCs. As to conditions: human PBMCs incubated with compound overnight, MC50 = concentration at which 50% of maximum induction is seen. The procedure: (§1) Peripheral blood mononuclear cells (PBMCs) from human blood were isolated using BD Vacutainer Cell Preparation Tubes with sodium citrate. Cells were incubated with compound overnight. TLR8 activity was assayed by measuring the amount of TNFα in supernatants by ELISA. TLR7 activity was assayed by measuring the amount of IFNα in supernatants by ELISA (R&D Systems). […] The results of this assay are shown below in Tables 2 and 3.
(§2) MC50 numbers are represented as factors of ten, for example, + indicates an MC50 value of X 10^4, or a value in the tens of thousands of nanomolar (nM range); ++ indicates an MC50 value of X 10^3, or a value in the thousands; +++ indicates an MC50 value of X 10^2, or a value in the hundreds; and ++++ indicates an MC50 value of X 10^1 or 10^0, or a value in the tens or ones.
In general terms: In an ELISA, binding on a coated surface is turned into a signal by an enzyme label.

Assay [2] concerns the target T2, TLR7 (Homo sapiens, UniProt Q9NYK1).
T2 sequence (Q9NYK1 27-1049): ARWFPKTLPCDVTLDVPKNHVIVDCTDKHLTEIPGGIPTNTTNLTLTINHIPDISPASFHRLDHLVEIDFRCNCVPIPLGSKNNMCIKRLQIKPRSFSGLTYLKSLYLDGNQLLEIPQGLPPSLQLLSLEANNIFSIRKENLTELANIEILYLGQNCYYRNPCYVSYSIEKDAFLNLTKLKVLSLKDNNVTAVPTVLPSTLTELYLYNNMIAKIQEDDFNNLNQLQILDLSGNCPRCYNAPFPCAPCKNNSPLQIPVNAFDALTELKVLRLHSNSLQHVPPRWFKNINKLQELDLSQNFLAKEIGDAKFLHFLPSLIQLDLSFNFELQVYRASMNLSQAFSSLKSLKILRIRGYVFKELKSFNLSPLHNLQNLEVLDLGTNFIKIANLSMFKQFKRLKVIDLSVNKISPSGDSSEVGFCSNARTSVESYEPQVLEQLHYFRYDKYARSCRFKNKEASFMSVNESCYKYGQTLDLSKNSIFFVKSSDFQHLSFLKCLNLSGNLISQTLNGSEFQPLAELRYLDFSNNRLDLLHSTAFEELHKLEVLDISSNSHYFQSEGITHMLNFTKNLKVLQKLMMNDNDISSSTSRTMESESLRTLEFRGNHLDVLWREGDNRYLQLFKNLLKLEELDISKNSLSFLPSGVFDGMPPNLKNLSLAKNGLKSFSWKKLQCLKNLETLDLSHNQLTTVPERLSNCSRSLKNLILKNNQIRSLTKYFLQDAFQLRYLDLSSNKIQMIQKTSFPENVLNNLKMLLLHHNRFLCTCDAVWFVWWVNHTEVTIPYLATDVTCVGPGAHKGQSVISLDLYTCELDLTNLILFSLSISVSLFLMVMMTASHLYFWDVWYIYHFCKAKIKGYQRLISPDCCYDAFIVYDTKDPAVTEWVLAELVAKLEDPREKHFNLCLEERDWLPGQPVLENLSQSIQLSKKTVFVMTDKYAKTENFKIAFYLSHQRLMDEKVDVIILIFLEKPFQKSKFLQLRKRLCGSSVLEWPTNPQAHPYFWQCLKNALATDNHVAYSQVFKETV
Put plainly: PBMC assay for TLR7 (IFNα in supernatants by ELISA). In kind it is cell-based. Also noted: Peripheral blood mononuclear cells (PBMCs) from human blood were isolated; endogenous in cells; host or cells: human PBMCs. As to conditions: human PBMCs incubated with compound overnight, MC50 = concentration at which 50% of maximum induction is seen. The procedure:
as §1, §2

For orientation: EC50 means the concentration giving half of the maximal effect. `CCCN(CC1CCNCC1)C(=O)C1=Cc2ccc(-c3ccc(C(=O)N4CCCC4)cc3)cc2N=C(N)C1` [Compound 113, (1E,4E)-2-amino-N-(piperidin-4-ylmethyl)-N-propyl-8-(4-(pyrrolidine-1-carbonyl)phenyl)-3H-benzo[b]azepine-4-carboxamide]: the EC50 in assay [1] was 100 to 1000 nM.

Turning to `NC1=Nc2cc(-c3ccc(C(=O)N4CCCC4)cc3)ccc2C=C(C(=O)NOCc2ccccc2)C1` [Compound 116, (1E,4E)-2-amino-N-(benzyloxy)-8-(4-(pyrrolidine-1-carbonyl)phenyl)-3H-benzo[b]azepine-4-carboxamide], the figures for the EC50 in assay [2] and in assay [1] were 10 to 100 µM and 1000 to 10000 nM, respectively.

`CCCN(OCc1ccccc1)C(=O)C1=Cc2ccc(-c3ccc(C(=O)N4CCCC4)cc3)cc2N=C(N)C1` [Compound 118, (1E,4E)-2-amino-N-(benzyloxy)-N-propyl-8-(4-(pyrrolidine-1-carbonyl)phenyl)-3H-benzo[b]azepine-4-carboxamide]: the EC50 in assay [1] was in the range of 1 to 100 nM.

For `CCOC(=O)C1=Cc2ccc(OCc3ccccc3)cc2N=C(N)C1` [Compound 148, (1E,4E)-ethyl 2-amino-8-(benzyloxy)-3H-benzo[b]azepine-4-carboxylate], the half-maximal effective concentration (EC50) in assay [1] was 100 to 1000 nM.

Take `CCCN(CC1CCCN1)C(=O)C1=Cc2ccc(-c3ccc(C(=O)N4CCCC4)cc3)cc2N=C(N)C1` (stereo not shown) [Compound 175, (1E,4E)-2-amino-N-propyl-N-(pyrrolidin-2-ylmethyl)-8-(4-(pyrrolidine-1-carbonyl)phenyl)-3H-benzo[b]azepine-4-carboxamide]: the EC50 in assay [1] lay within 1000 to 10000 nM.

Consider `CCCN(CCCS(N)(=O)=O)C(=O)C1=Cc2ccc(-c3ccc(C(=O)N4CCCC4)cc3)cc2N=C(N)C1` [Compound 177, (1E,4E)-2-amino-N-propyl-8-(4-(pyrrolidine-1-carbonyl)phenyl)-N-(3-sulfamoylpropyl)-3H-benzo[b]azepine-4-carboxamide], for which the EC50 in assay [1] was in the range of 100 to 1000 nM.

In the case of `CCCN(CCC)C(=O)C1=Cc2ccc(CCCN3CCOCC3)cc2N=C(N)C1` [Compound 184, (1E,4E)-2-amino-8-(3-morpholinopropyl)-N,N-dipropyl-3H-benzo[b]azepine-4-carboxamide], the EC50 lay within 1 to 10 µM in assay [2] and 1 to 100 nM in assay [1].

Consider `CCCN(CCC)C(=O)C1=Cc2ccc(OCc3ccccc3)cc2N=C(N)C1` [Compound 185, (1E,4E)-2-amino-8-(benzyloxy)-N,N-dipropyl-3H-benzo[b]azepine-4-carboxamide], for which the EC50 in assay [1] lay within 100 to 1000 nM.

For the compound `CCCN(CCC)C(=O)C1=Cc2ccc(-c3ccc(CC(=O)O)cc3)cc2N=C(N)C1` [Compound 191, 2-(4-((1E,4E)-2-Amino-4-(dipropylcarbamoyl)-3H-benzo[b]azepin-8-yl)phenyl)acetic acid], the 50% effective concentration (EC50) in assay [2] fell in the range of 10 to 100 µM; in assay [1] it was 1000 to 10000 nM.

With `CCCN(CCC)C(=O)C1=Cc2ccc(-c3ccc(CC(=O)OCC)cc3)cc2N=C(N)C1` [Compound 192, Ethyl 2-(4-((1E,4E)-2-amino-4-(dipropylcarbamoyl)-3H-benzo[b]azepin-8-yl)phenyl)acetate], the EC50 in assay [2] was in the range of 10 to 100 µM; in assay [1] it was 100 to 1000 nM.

For the compound `CCCN(CCC)C(=O)C1=Cc2ccc(-c3ccc(CCC(=O)OCC)cc3)cc2N=C(N)C1` [Compound 193, Ethyl 3-(4-((1E,4E)-2-amino-4-(dipropylcarbamoyl)-3H-benzo[b]azepin-8-yl)phenyl)propanoate], the values for the EC50 in assay [2] and in assay [1] were 1 to 10 µM and 1000 to 10000 nM, respectively.

Consider `CCCN(CCC)C(=O)C1=Cc2ccc(-c3ccc(OCC(=O)O)cc3)cc2N=C(N)C1` [Compound 196, 2-(4-((1E,4E)-2-Amino-4-(dipropylcarbamoyl)-3H-benzo[b]azepin-8-yl)phenoxy)acetic acid], for which the concentration giving a half-maximal response (EC50) in assay [1] lay within 10000 to 100000 nM.

In the case of `CCCN(CCC)C(=O)C1=Cc2ccc(-c3ccc4c(c3)COC4=O)cc2N=C(N)C1` [Compound 198, (1E,4E)-2-Amino-8-(1-oxo-1,3-dihydroisobenzofuran-5-yl)-N,N-dipropyl-3H-benzo[b]azepine-4-carboxamide], the EC50 in assay [1] lay in the range of 100 to 1000 nM.

Turning to `CCOC(=O)C1=Cc2ccc(CCCN3CCOCC3)cc2N=C(N)C1` [Compound 200, (1E,4E)-ethyl 2-amino-8-(3-morpholinopropyl)-3H-benzo[b]azepine-4-carboxylate], in assay [1], the EC50 is 1 to 100 nM.

Turning to `CCCN(CCC)C(=O)C1=Cc2ccc(-c3ccc(C(=O)NCCCC(=O)OCc4ccccc4)cc3)cc2N=C(N)C1` [Compound 201, benzyl 4-(4-((1E,4E)-2-amino-4-(dipropylcarbamoyl)-3H-benzo[b]azepin-8-yl)benzamido)butanoate], the EC50 in assay [1] was in the range of 100 to 1000 nM.

`CCCN(CCC)C(=O)C1=Cc2ccc(-c3cccc(CC(=O)OCC)c3)cc2N=C(N)C1` [Compound 205, Ethyl 2-(3-((1E,4E)-2-amino-4-(dipropylcarbamoyl)-3H-benzo[b]azepin-8-yl)phenyl)acetate]: the EC50 in assay [1] lay within 100 to 1000 nM.

In the case of `CCCN(CCCO)C(=O)C1=Cc2ccc(-c3ccc(CC(=O)OCC4CC4)cc3)cc2N=C(N)C1` [Compound 217, Cyclopropylmethyl 2-(4-((1E,4E)-2-amino-4-((3-hydroxypropyl)(propyl)carbamoyl)-3H-benzo[b]azepin-8-yl)phenyl)acetate], the EC50 in assay [1] is 1 to 100 nM.

`CCCN(CCCO)C(=O)C1=Cc2ccc(-c3ccc(CC(=O)OCc4ccccc4)cc3)cc2N=C(N)C1` [Compound 218, Benzyl 2-(4-((1E,4E)-2-amino-4-((3-hydroxypropyl)(propyl)carbamoyl)-3H-benzo[b]azepin-8-yl)phenyl)acetate]: in assay [1], the EC50 was 100 to 1000 nM.

As to `CCCN(CCCO)C(=O)C1=Cc2ccc(-c3ccc4c(c3)COC4=O)cc2N=C(N)C1` [Compound 221, (1E,4E)-2-Amino-N-(3-hydroxypropyl)-8-(1-oxo-1,3-dihydroisobenzofuran-5-yl)-N-propyl-3H-benzo[b]azepine-4-carboxamide], in assay [1], the EC50 is 100 to 1000 nM.

Turning to `CCCN(CCC)C(=O)C1=Cc2ccc(-c3ccc(OS(=O)(=O)C(F)(F)F)cc3)cc2N=C(N)C1` [Compound 226, 4-((1E,4E)-2-amino-4-(dipropylcarbamoyl)-3H-benzo[b]azepin-8-yl)phenyl trifluoromethanesulfonate], in assay [1], the EC50 was 100 to 1000 nM.

Source of the values: patent publication US9655904B2, “Substituted benzoazepines as toll-like receptor modulators” (VentiRx Pharmaceuticals, Inc., priority 2009, dated 2017).
